Data from patent publication US20240384268A1, “Oligonucleotides” (Hudson Institute of Medical Research, priority 2021, published 2024).
In the oligonucleotide strings, read from the 5' end, every base follows the letter of its sugar. An asterisk marks phosphorothioate; unmarked linkages are phosphodiester. Other units and linkages are bracketed, terminal groups are in braces. A string of capitals states the bases alone. d = 2'-deoxy (DNA); m = 2'-O-methyl

Target: T1, human TLR7 (Homo sapiens, UniProt Q9NYK1)
T1 construct: HA; host or cells: 293XL-hTLR7-HA (HEK293)
T1 sequence (Q9NYK1 27-1049): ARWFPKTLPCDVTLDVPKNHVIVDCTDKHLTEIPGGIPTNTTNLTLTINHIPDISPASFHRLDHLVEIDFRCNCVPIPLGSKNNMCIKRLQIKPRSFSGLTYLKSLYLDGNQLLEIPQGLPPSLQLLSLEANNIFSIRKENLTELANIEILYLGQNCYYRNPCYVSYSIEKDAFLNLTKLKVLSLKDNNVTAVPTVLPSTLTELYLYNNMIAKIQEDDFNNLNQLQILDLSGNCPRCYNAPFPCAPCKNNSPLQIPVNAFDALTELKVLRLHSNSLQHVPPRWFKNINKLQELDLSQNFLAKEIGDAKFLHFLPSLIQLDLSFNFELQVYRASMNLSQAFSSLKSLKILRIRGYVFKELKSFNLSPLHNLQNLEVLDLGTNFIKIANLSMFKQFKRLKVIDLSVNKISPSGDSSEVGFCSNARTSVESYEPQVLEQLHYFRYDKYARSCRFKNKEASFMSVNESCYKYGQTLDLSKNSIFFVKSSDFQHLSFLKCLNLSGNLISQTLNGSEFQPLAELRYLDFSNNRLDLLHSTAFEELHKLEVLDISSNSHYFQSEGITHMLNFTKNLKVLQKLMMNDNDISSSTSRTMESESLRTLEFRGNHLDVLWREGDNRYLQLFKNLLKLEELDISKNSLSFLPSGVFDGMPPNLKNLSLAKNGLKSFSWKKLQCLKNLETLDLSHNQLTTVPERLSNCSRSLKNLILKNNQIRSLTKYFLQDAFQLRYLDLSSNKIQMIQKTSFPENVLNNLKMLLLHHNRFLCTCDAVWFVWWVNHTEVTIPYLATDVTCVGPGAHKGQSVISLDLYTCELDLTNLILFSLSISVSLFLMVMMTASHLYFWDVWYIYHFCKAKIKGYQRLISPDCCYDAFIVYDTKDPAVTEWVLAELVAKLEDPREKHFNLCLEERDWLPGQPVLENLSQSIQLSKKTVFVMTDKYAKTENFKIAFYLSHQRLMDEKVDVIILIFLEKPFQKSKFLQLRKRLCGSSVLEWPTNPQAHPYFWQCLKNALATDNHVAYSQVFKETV
Assay: HEK-TLR7 NF-κB-luciferase reporter, R848 stimulation
Type: cell-based
Details: for TLR7 100 nM: MOE-modified ASO at 100 nM; for TLR7 100 nM / TLR7 500 nM: averaged NF-κB-Luciferase relative to R848 condition; for TLR7 500 nM: MOE-modified ASO at 500 nM; for TLR7-100 nM: averaged NF-κB-Luciferase relative to R848: HEK-TLR7, 100 nM ASO, percentage of R848 without ASO (Alharbi et al., 2020)

| Substance | TLR7 100 nM | TLR7 500 nM | TLR7-100 nM: averaged NF-κB-Luciferase relative to R848 |
| --- | --- | --- | --- |
| AGTCGTAGTTGCTTCCTAAC (antisense; 2'-MOE modified, pattern not given here) [MB21D1-1181 MOE] | 0.494 | 0.228 | – |
| ATGCCATCCACTTGATAGGC (antisense; 2'-MOE modified, pattern not given here) [EGFR-2874 MOE] | 0.668 | 0.390 | – |
| CGGAGGTCTTGGCTTCGTGG (antisense; 2'-MOE modified, pattern not given here) [MB21D1-525 MOE] | 0.505 | 0.138 | – |
| CGGCATCCACCACGTCGTCC (antisense; 2'-MOE modified, pattern not given here) [EGFR-3267 MOE] | 0.485 | 0.202 | – |
| GCCCATCCATGAGGTCCTGG (antisense; 2'-MOE modified, pattern not given here) [CTNN2B-2545 MOE] | 0.340 | 0.124 | – |
| GCTGACAAAGATTCACTGGT (antisense; 2'-MOE modified, pattern not given here) [HPRT-1353 MOE] | 0.375 | 0.190 | – |
| GGGTATCGAAAGAGTCTGGA (antisense; 2'-MOE modified, pattern not given here) [EGFR-3908 MOE] | 0.350 | 0.079 | – |
| GGTTTTGGCTGGGATCAAGT (antisense; 2'-MOE modified, pattern not given here) [CAMSAP1-4697 MOE] | 0.346 | 0.191 | – |
| GTCCAAGATCAGCAGTCTCA (antisense; 2'-MOE modified, pattern not given here) [CTNN2B-2341 MOE] | 0.298 | 0.120 | – |
| TCCGGCCTCGGAAGCTCTCT (antisense; 2'-MOE modified, pattern not given here) [MB21D1-168 MOE] | 0.440 | 0.166 | – |
| TGGCAGGCTCAGTGATGTCT (antisense; 2'-MOE modified, pattern not given here) [CTNN2B-1642 MOE] | 0.415 | 0.167 | – |
| TGGGCTGGAATCCGAGTTAT (antisense; 2'-MOE modified, pattern not given here) [EGFR-4705 MOE] | 0.270 | 0.095 | – |
| TGGGTTACGGCTCAGTATGG (antisense; 2'-MOE modified, pattern not given here) [CAMSAP1-4295 MOE] | 0.427 | 0.167 | – |
| TTTGCACACTTCGTACCCAA (antisense; 2'-MOE modified, pattern not given here) [CAMSAP1-4916 MOE] | 0.296 | 0.118 | – |
| mA*mA*mA*mA*mG*A*T*T*A*T*C*T*T*C*T*mU*mU*mU*mA*mA (AAAAGATTATCTTCTUUUAA; sugars from the 5' end m5 d10 m5, all phosphorothioate, methylation of C not given here) [[CDKN2B-AS1]2133] | – | – | 47.41% |
| mA*mA*mA*mA*mU*A*A*G*G*G*G*A*A*T*A*mG*mG*mG*mG*mA (mA*mA*mA*mA*mU*dA*dA*dG*dG*dG*dG*dA*dA*dT*dA*mG*mG*mG*mG*mA; antisense) [[CDKN2B-AS1]79] | – | – | 68.45% |
| mA*mA*mA*mG*mA*T*T*A*T*C*T*T*C*T*T*mU*mU*mA*mA*mU (mA*mA*mA*mG*mA*dT*dT*dA*dT*dC*dT*dT*dC*dT*dT*mU*mU*mA*mA*mU) [[CDKN2B-AS1]2132] | – | – | 49.28% |
| mA*mA*mA*mU*mG*T*C*C*T*G*G*C*C*C*T*mC*mA*mC*mU*mG (mA*mA*mA*mU*mG*dT*dC*dC*dT*dG*dG*dC*dC*dC*dT*mC*mA*mC*mU*mG) [[LINC-PINT]148.1] | – | – | 46.45% |
| mA*mA*mG*mA*mU*T*A*T*C*T*T*C*T*T*T*mU*mA*mA*mU*mU (mA*mA*mG*mA*mU*dT*dA*dT*dC*dT*dT*dC*dT*dT*dT*mU*mA*mA*mU*mU) [[CDKN2B-AS1]2131] | – | – | 42.09% |
